Literature values in patent publication US12508269B2, “Parenteral dosage form of carboplatin” (priority 2018, dated 2025).

## [NH2][Pt]1([NH2])[O]C(=O)C2(CCC2)C(=O)[O]1 [carboplatin, diammine [1,1-cyclobutanedicarboxylato(2-)-0, 0′]]
Myres et al, refrigeration in the dark or room temperature exposed to fluorescent light
  time for which reconstituted or diluted aqueous solutions were stable: seven
Pack insert of Paraplatin and references
  time for which reconstituted solutions are stable: 8 h
